Reference: patent publication US3988340A, “6-Alkoxymethyl-1,2,3,5-tetrahydroimidazo[2,1-b]quinazolin-2-ones and 7-alkoxymethyl-6-[H]-1,2,3,4-tetrahydropyrimido[2,1-b]quinazolin-2-ones” (Bristol-Myers Company, priority 1975, dated 1976)
In brackets after ≈: the same amount, converted by molar mass. Where two headings read alike, the source gives them in different places.

What was measured:
[1] = Crystal formation in the liver of dogs at very high doses; format: in vivo, dog; conditions: compound or a metabolite
[2] = test system: biolaser induced thrombosis; experiment: Biolaser induced thrombosis in the rabbit ear chamber; format: in vivo
Excerpt: (§1) Methodology for these three in vivo techniques has been previously reported (4, 5).

[3] = Hypotensive activity compared with BL-3459; format: in vivo; conditions: associated with antiaggregative activity; versus BL-3459
[4] = Crystal deposits in tissues of animal species evaluated; format: in vivo; conditions: any tissue of any animal species evaluated up to the present time
Dog Platelet Rich Plasma [5] = experiment: In vitro inhibition of ADP induced platelet aggregation in the aggregometer, dog platelet rich plasma; format: cell-based; conditions: Canis lupus familiaris, read-out: EC50 & 95% Confidence Limits
[6] = Mean aortic blood pressure in rats after oral administration; format: in vivo; conditions: 50 mg/kg oral; for Mean Aortic Blood Pressure % Change / Mean Aortic Blood Pressure: N=9, mean ± 1 S.E.
Description: The blood pressure of unanesthetized rats and dogs was measured directly by means of a transducer attached to an intra-arterial cannula and in anesthetized dogs by a mercury manometer attached to a carotid cannula.
The compounds of the instant invention were tested as the hydrochloride salts by the above method in normotensive rats in doses of 50 mg./kg. orally.
Compound 12a (BL-4784a) was tested for its hypotensive activity in rats as follows:
Rats were dosed orally with the test drug (50 mg/kg) or saline and blood pressure measurements were made at 30, 90, 150 and 300 mins. after drug administration.
Saline administration in a volume equivalent to drug administration had only a minimal effect.

Dog Platelet Rich Plasma [7] = experiment: Ex vivo ADP induced platelet aggregation in dog PRP after oral drug administration; conditions: Canis lupus familiaris, PRP obtained before and 1 hr. after oral drug administration, read-out: ED50, ex vivo inhibition of ADP induced aggregation
Description: BL-4784A was also tested ex vivo in dogs where ADP was used to induce aggregation in PRP samples obtained before and 1 hr. after oral drug administration.
Before dosing the animals, blood samples are taken. The blood is centrifuged to obtain the blood platelet-rich plasma. Aggregation of this plasma is induced with ADP or collagen. This is the control.
The animals are then dosed with the compounds to be tested (orally or parenterally). Depending upon the route of administration, one to two hours are allowed to elapse after dosing. Blood is drawn and the same procedure as for the control in untreated animals.
The dose required to produce 50% inhibition of the aggregation is determined by dose response data obtained in this manner.

[8] = In vivo solubility of compound or metabolite; format: physicochemical; conditions: compound or its metabolite, versus BL-3459
[9] = test system: electrically induced carotid artery thrombosis; experiment: Electrically induced carotid artery thrombosis in the dog; format: in vivo; conditions: Canis lupus familiaris, po
Excerpt: as §1

[10] = test system: blood platelet aggregation; experiment: Blood platelet antiaggregative potency compared with BL-3459; conditions: versus BL-3459
[11] = test system: Rabbit Platelet Rich Plasma; experiment: In vitro inhibition of induced platelet aggregation in the aggregometer, rabbit platelet rich plasma; format: cell-based; conditions: Oryctolagus cuniculus, read-out: EC50 & 95% Confidence Limits
Description: The aggregometer method of Born (1), as modified by Mustard et al. (2) was used to assess the in vitro activity of the various compounds as to inhibition of adenosine diphosphate (ADP) and collagen induced platelet aggregation. Platelet rich plasma was separated by centrifugation from citrated (3.8 percent) rabbit blood. […] (3) was used to induce aggregation. The various compounds tested were dissolved in dimethylsulfoxide (DMSO) so that 5 mcl. added to the platelet rich plasma would yield the desired test concentration. Vehicle control trials were done and compared with aggregation induced in platelet rich plasma containing various concentrations of the test compounds. Dose response curves were obtained and Effective Concentration (EC50) values calculated.
Compound 12a (BL-4784A) has been evaluated in a series of in vitro, ex vivo and in vivo animal models of platelet aggregation and thrombosis.

SMILES: Cc1cccc2c1CN1CC(=O)NC1=N2 [BL-3459]
- Crystal formation in liver [1]: formed crystals in the liver of dogs at very high doses

SMILES: COCc1cccc2c1CN1CC(=O)NC1=N2 [Compound 12a, 6-(α-methoxymethyl)-1,2,3,5-tetrahydroimidazo[2,1-b]quinazolin-2-one]
- ED50 ([2]; Oryctolagus cuniculus, rabbit ear chamber, po): 5.3 mg/kg
- Activity in in vivo animal models of thrombosis ([2]; result in words for three in vivo animal models): significant activity in three in vivo animal models
- Degree of hypotensive activity [3]: lower degree of hypotensive activity
- Crystal deposits in tissue [4]: no crystal deposits have been observed in any tissue of any animal species
- EC50 (Dog Platelet Rich Plasma [5]): 0.19 µg/mL (≈ 0.822 µM)
- Aortic blood pressure lowering ([6]; result in words): significant lowering of aortic blood pressure
- Mean Aortic Blood Pressure % Change ([6]; 30 min): -33 ± 4%
- Mean Aortic Blood Pressure ([6]; 30 min, *P = <.05): 73 ± 5 mm Hg
- Mean Aortic Blood Pressure % Change ([6]; 90 min): -27 ± 4%
- Mean Aortic Blood Pressure ([6]; 90 min, *P = <.05): 79 ± 3 mm Hg
- Mean Aortic Blood Pressure % Change ([6]; 150 min): -23 ± 2%
- Mean Aortic Blood Pressure ([6]; 150 min, *P = <.05): 84 ± 3 mm Hg
- Mean Aortic Blood Pressure % Change ([6]; 300 min): -20 ± 4%
- Mean Aortic Blood Pressure ([6]; 300 min, *P = <.05): 87 ± 3 mm Hg
- Mean Aortic Blood Pressure ([6]; time 0 min (before drug)): 111 ± 3 mm Hg
- ED50 (Dog Platelet Rich Plasma [7]): 1.79 mg/kg
- Solubility in vivo [8]: more soluble in vivo
- ED50 [9]: 10.5 mg/kg
- Potency as blood platelet antiaggregate [10]: more potent than BL-3459
- EC50 ([11]; ADP induced (2.93 × 10^-5 M)): 0.2 µg/mL (≈ 0.865 µM)
- EC50 ([11]; Antigen-Antibody complex (egg albumin, 2 μg/ml), PRP from sensitized rabbits): 0.13 µg/mL
- EC50 ([11]; Arachidonic acid induced (50 μg/ml)): 0.27 µg/mL (≈ 1.17 µM)
- EC50 ([11]; Collagen induced): 0.09 µg/mL (≈ 0.389 µM)
- EC50 ([11]; Thrombin induced (1 unit per ml)): 0.63 µg/mL (≈ 2.72 µM)
